Experimental data taken from the CheMixHub ionic liquid set.

Test: xn = mol fraction of the nth substance listed
Settings: 100 kPa

CCCCCCCC[n+]1ccccc1.[Br-] + CC(C)C[C@H](NC(=O)CN)C(=O)O + O
Settings	electrical conductivity [S/m]
288.15 K, x2 = 0.0008948, x1 = 0.005958	1.18
288.15 K, x2 = 0.0008949, x1 = 0.005845	1.16
288.15 K, x2 = 0.0008952, x1 = 0.005555	1.12
288.15 K, x2 = 0.0008955, x1 = 0.005223	1.08
288.15 K, x2 = 0.0008958, x1 = 0.004874	1.04
288.15 K, x2 = 0.0008961, x1 = 0.00451	0.998
288.15 K, x2 = 0.0008965, x1 = 0.00409	0.947
288.15 K, x2 = 0.0008969, x1 = 0.003625	0.867
288.15 K, x2 = 0.0008973, x1 = 0.003174	0.789
288.15 K, x2 = 0.0008978, x1 = 0.002616	0.679
288.15 K, x2 = 0.0008984, x1 = 0.002001	0.558
288.15 K, x2 = 0.0008987, x1 = 0.001608	0.469
288.15 K, x2 = 0.0008991, x1 = 0.001214	0.381
288.15 K, x2 = 0.0008996, x1 = 0.0007137	0.253
288.15 K, x2 = 0.001788, x1 = 0.005808	1.12
288.15 K, x2 = 0.001789, x1 = 0.005199	1.05
288.15 K, x2 = 0.001789, x1 = 0.005515	1.09
288.15 K, x2 = 0.00179, x1 = 0.004871	1.01
288.15 K, x2 = 0.001791, x1 = 0.00409	0.911
288.15 K, x2 = 0.001791, x1 = 0.004503	0.962
288.15 K, x2 = 0.001792, x1 = 0.003639	0.855
288.15 K, x2 = 0.001793, x1 = 0.003149	0.766
288.15 K, x2 = 0.001794, x1 = 0.002603	0.666
288.15 K, x2 = 0.001795, x1 = 0.002003	0.545
288.15 K, x2 = 0.001796, x1 = 0.001632	0.462
288.15 K, x2 = 0.001797, x1 = 0.0008258	0.273
288.15 K, x2 = 0.001797, x1 = 0.001246	0.37
293.15 K, x2 = 0.0008948, x1 = 0.005956	1.31
293.15 K, x2 = 0.0008949, x1 = 0.005843	1.3
293.15 K, x2 = 0.0008952, x1 = 0.005554	1.27
293.15 K, x2 = 0.0008955, x1 = 0.005223	1.22
293.15 K, x2 = 0.0008958, x1 = 0.004874	1.17
293.15 K, x2 = 0.0008961, x1 = 0.004508	1.12
293.15 K, x2 = 0.0008965, x1 = 0.004089	1.06
293.15 K, x2 = 0.0008969, x1 = 0.003623	0.983
293.15 K, x2 = 0.0008973, x1 = 0.003174	0.894
293.15 K, x2 = 0.0008978, x1 = 0.002616	0.781
293.15 K, x2 = 0.0008984, x1 = 0.002001	0.632
293.15 K, x2 = 0.0008987, x1 = 0.001608	0.526
293.15 K, x2 = 0.0008991, x1 = 0.001214	0.427
293.15 K, x2 = 0.0008996, x1 = 0.0007137	0.283
293.15 K, x2 = 0.001788, x1 = 0.005807	1.28
293.15 K, x2 = 0.001789, x1 = 0.005198	1.19
293.15 K, x2 = 0.001789, x1 = 0.005513	1.24
293.15 K, x2 = 0.00179, x1 = 0.004869	1.14
293.15 K, x2 = 0.001791, x1 = 0.00409	1.04
293.15 K, x2 = 0.001791, x1 = 0.004503	1.1
293.15 K, x2 = 0.001792, x1 = 0.003637	0.959
293.15 K, x2 = 0.001793, x1 = 0.003149	0.869
293.15 K, x2 = 0.001794, x1 = 0.002603	0.756
293.15 K, x2 = 0.001795, x1 = 0.002003	0.615
293.15 K, x2 = 0.001796, x1 = 0.001632	0.523
293.15 K, x2 = 0.001797, x1 = 0.0008258	0.306
293.15 K, x2 = 0.001797, x1 = 0.001246	0.419
298.15 K, x2 = 0.0008948, x1 = 0.005954	1.49
298.15 K, x2 = 0.0008949, x1 = 0.005843	1.48
298.15 K, x2 = 0.0008952, x1 = 0.005554	1.44
298.15 K, x2 = 0.0008955, x1 = 0.005221	1.38
298.15 K, x2 = 0.0008958, x1 = 0.004872	1.34
298.15 K, x2 = 0.0008961, x1 = 0.004508	1.29
298.15 K, x2 = 0.0008965, x1 = 0.004089	1.21
298.15 K, x2 = 0.0008969, x1 = 0.003623	1.12
298.15 K, x2 = 0.0008973, x1 = 0.003174	1.02
298.15 K, x2 = 0.0008978, x1 = 0.002616	0.883
298.15 K, x2 = 0.0008984, x1 = 0.002001	0.72
298.15 K, x2 = 0.0008987, x1 = 0.001608	0.604
298.15 K, x2 = 0.0008991, x1 = 0.001214	0.48
298.15 K, x2 = 0.0008996, x1 = 0.0007137	0.314
298.15 K, x2 = 0.001788, x1 = 0.005807	1.46
298.15 K, x2 = 0.001789, x1 = 0.005198	1.36
298.15 K, x2 = 0.001789, x1 = 0.005513	1.41
298.15 K, x2 = 0.00179, x1 = 0.004869	1.31
298.15 K, x2 = 0.001791, x1 = 0.004088	1.17
298.15 K, x2 = 0.001791, x1 = 0.004501	1.25
298.15 K, x2 = 0.001792, x1 = 0.003637	1.09
298.15 K, x2 = 0.001793, x1 = 0.003149	0.978
298.15 K, x2 = 0.001794, x1 = 0.002603	0.849
298.15 K, x2 = 0.001795, x1 = 0.002003	0.689
298.15 K, x2 = 0.001796, x1 = 0.001632	0.585
298.15 K, x2 = 0.001797, x1 = 0.0008258	0.341
298.15 K, x2 = 0.001797, x1 = 0.001246	0.469
303.15 K, x2 = 0.0008948, x1 = 0.005952	1.67
303.15 K, x2 = 0.0008949, x1 = 0.005839	1.65
303.15 K, x2 = 0.0008952, x1 = 0.00555	1.6
303.15 K, x2 = 0.0008955, x1 = 0.005219	1.54
303.15 K, x2 = 0.0008958, x1 = 0.00487	1.49
303.15 K, x2 = 0.0008961, x1 = 0.004507	1.43
303.15 K, x2 = 0.0008965, x1 = 0.004087	1.34
303.15 K, x2 = 0.0008969, x1 = 0.003621	1.24
303.15 K, x2 = 0.0008973, x1 = 0.003172	1.12
303.15 K, x2 = 0.0008978, x1 = 0.002616	0.97
303.15 K, x2 = 0.0008984, x1 = 0.001999	0.789
303.15 K, x2 = 0.0008987, x1 = 0.001608	0.66
303.15 K, x2 = 0.0008991, x1 = 0.001214	0.531
303.15 K, x2 = 0.0008996, x1 = 0.0007137	0.347
303.15 K, x2 = 0.001789, x1 = 0.005196	1.52
303.15 K, x2 = 0.001789, x1 = 0.005509	1.58
303.15 K, x2 = 0.00179, x1 = 0.004867	1.46
303.15 K, x2 = 0.001791, x1 = 0.004088	1.31
303.15 K, x2 = 0.001791, x1 = 0.004501	1.4
303.15 K, x2 = 0.001792, x1 = 0.003637	1.21
303.15 K, x2 = 0.001793, x1 = 0.003148	1.09
303.15 K, x2 = 0.001794, x1 = 0.002601	0.944
303.15 K, x2 = 0.001795, x1 = 0.002003	0.768
303.15 K, x2 = 0.001796, x1 = 0.001632	0.65
303.15 K, x2 = 0.001797, x1 = 0.0008258	0.377
303.15 K, x2 = 0.001797, x1 = 0.001246	0.521
308.15 K, x2 = 0.0008948, x1 = 0.005949	1.85
308.15 K, x2 = 0.0008949, x1 = 0.005837	1.83
308.15 K, x2 = 0.0008952, x1 = 0.005548	1.78
308.15 K, x2 = 0.0008955, x1 = 0.005217	1.71
308.15 K, x2 = 0.0008958, x1 = 0.004868	1.65
308.15 K, x2 = 0.0008961, x1 = 0.004505	1.57
308.15 K, x2 = 0.0008965, x1 = 0.004085	1.49
308.15 K, x2 = 0.0008969, x1 = 0.003621	1.36
308.15 K, x2 = 0.0008973, x1 = 0.003172	1.23
308.15 K, x2 = 0.0008978, x1 = 0.002614	1.06
308.15 K, x2 = 0.0008984, x1 = 0.001999	0.852
308.15 K, x2 = 0.0008987, x1 = 0.001608	0.718
308.15 K, x2 = 0.0008991, x1 = 0.001214	0.577
308.15 K, x2 = 0.0008996, x1 = 0.0007137	0.379
308.15 K, x2 = 0.001789, x1 = 0.005194	1.69
308.15 K, x2 = 0.001789, x1 = 0.005508	1.75
308.15 K, x2 = 0.00179, x1 = 0.004866	1.63
308.15 K, x2 = 0.001791, x1 = 0.004086	1.46
308.15 K, x2 = 0.001791, x1 = 0.004499	1.55
308.15 K, x2 = 0.001792, x1 = 0.003635	1.33
308.15 K, x2 = 0.001793, x1 = 0.003148	1.21
308.15 K, x2 = 0.001794, x1 = 0.002601	1.04
308.15 K, x2 = 0.001795, x1 = 0.002003	0.843
308.15 K, x2 = 0.001796, x1 = 0.00163	0.713
308.15 K, x2 = 0.001797, x1 = 0.0008258	0.415
308.15 K, x2 = 0.001797, x1 = 0.001246	0.576
